Results: the supplement of paper PMC10307832

Assays:
Test in all cases: relative viability (nuclei count vs DMSO), 5 days (fraction); higher = more cells survive
Doramapimod + Phenformin = compound: Cc1ccc(-n2nc(C(C)(C)C)cc2NC(=O)Nc2ccc(OCCN3CCOCC3)c3ccccc23)cc1 [Doramapimod] + N=C(N)NC(=N)NCCc1ccccc1 [Phenformin] (partner 250 µM)
Procedure, shortened: (§1)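 Cells from lung cancer lines were seeded into 1536-well plates and, one day later, dosed by pin tool. Treatments were either a single drug or a fixed dose of an anchor drug with five library-drug doses (not always all listed) in √10 steps. After 5 days, nuclei were stained in a one-step fixation (final 0.05% Triton X-100, 1% formaldehyde, 1 ug/ml Hoechst) and counted on 4× images, and relative viability is the treated-to-vehicle nuclei ratio, as the median of duplicate plates.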

Doramapimod + Crizotinib = compound: Cc1ccc(-n2nc(C(C)(C)C)cc2NC(=O)Nc2ccc(OCCN3CCOCC3)c3ccccc23)cc1 [Doramapimod] + C[C@@H](Oc1cc(-c2cnn(C3CCNCC3)c2)cnc1N)c1c(Cl)ccc(F)c1Cl [Crizotinib] (partner 1 µM)
Procedure, shortened: as §1

IPA-3 + Phenformin = compound: C1=CC=C2C(=C1)C=CC(=C2SSC3=C(C=CC4=CC=CC=C43)O)O [IPA-3] + N=C(N)NC(=N)NCCc1ccccc1 [Phenformin] (partner 250 µM)
Procedure, shortened: as §1

RAF265 + Tozasertib = compound: Cn1c(Nc2ccc(C(F)(F)F)cc2)nc2cc(Oc3ccnc(-c4ncc(C(F)(F)F)[nH]4)c3)ccc21 [RAF265] + Cc1cc(Nc2cc(N3CCN(C)CC3)nc(Sc3ccc(NC(=O)C4CC4)cc3)n2)n[nH]1 [Tozasertib] (partner 0.1 µM)
Procedure, shortened: as §1

Cell Line | relative viability (Doramapimod + Phenformin; first compound 0.02 µM) | relative viability (Doramapimod + Phenformin; first compound 0.06325 µM) | relative viability (Doramapimod + Phenformin; first compound 0.2 µM) | relative viability (Doramapimod + Phenformin; first compound 0.6325 µM) | relative viability (Doramapimod + Phenformin; first compound 2 µM) | relative viability (Doramapimod + Crizotinib; first compound 0.02 µM) | relative viability (Doramapimod + Crizotinib; first compound 0.06325 µM) | relative viability (Doramapimod + Crizotinib; first compound 0.2 µM) | relative viability (Doramapimod + Crizotinib; first compound 0.6325 µM) | relative viability (Doramapimod + Crizotinib; first compound 2 µM) | relative viability (IPA-3 + Phenformin; first compound 0.2 µM) | relative viability (IPA-3 + Phenformin; first compound 0.6325 µM) | relative viability (IPA-3 + Phenformin; first compound 2 µM) | relative viability (IPA-3 + Phenformin; first compound 6.325 µM) | relative viability (IPA-3 + Phenformin; first compound 20 µM) | relative viability (RAF265 + Tozasertib; first compound 0.01 µM) | relative viability (RAF265 + Tozasertib; first compound 0.03162 µM) | relative viability (RAF265 + Tozasertib; first compound 0.1 µM) | relative viability (RAF265 + Tozasertib; first compound 0.3162 µM) | relative viability (RAF265 + Tozasertib; first compound 1 µM)
LC-2-ad | 0.571 | 0.619 | 0.641 | 0.517 | 0.487 | 0.531 | 0.451 | 0.448 | 0.435 | 0.385 | 0.605 | 0.566 | 0.556 | 0.595 | 0.666 | 0.529 | 0.459 | 0.507 | 0.356 | 0.335
PC-3 [JPC-3] | 0.506 | 0.475 | 0.474 | 0.502 | 0.453 | 1 | 1 | 1.06 | 1.08 | 0.955 | 0.462 | 0.47 | 0.495 | 0.499 | 0.489 | 0.889 | 0.868 | 0.985 | – | 0.518
EBC-1 | – | – | – | – | – | 0.161 | 0.196 | 0.162 | 0.184 | 0.188 | – | – | – | – | – | – | – | – | – | –
HCC-15 | 0.481 | 0.467 | 0.478 | – | 0.365 | 0.836 | 0.731 | 0.838 | 0.887 | 0.718 | 0.634 | 0.343 | 0.469 | 0.477 | 0.583 | 0.406 | 0.32 | 0.538 | 0.401 | 0.278
NCI-H1563 | 0.653 | 0.682 | 0.653 | 0.806 | 0.739 | 0.977 | 0.917 | 0.859 | 0.893 | 0.612 | 0.703 | 0.644 | 0.655 | 0.727 | 0.735 | – | – | – | – | –
